From ChEMBL document CHEMBL1201862, “PubChem BioAssay data set” (2004) come the findings set out here.

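Cultured in 96-well plates, cells were exposed to test compound for 48 hours across five concentrations. GI50 marks 50% less growth.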 Activity calls are given as the source filed them. Rule as the data show it: active = GI50 up to about 1.1 µM and inactive = higher. Bounds are passed on as bounds.

Test systems include MDA-N; SK-MEL-2; HCC 2998; HCT-15; OVCAR-3; T47D; 786-0; TK-10; SNB-19; HL-60; NCI-H460; CCRF-CEM; OVCAR-8; SW-620; UACC-257; SN12C; NCI-H522; SK-OV-3; UACC-62.
Test in all cases: DTP human tumour cell line panel, 48 h

As for `COc1ccc2c(=O)cc(-c3ccncc3)oc2c1OC`, the GI50 in the test on MDA-N is 29.2 µM (inactive); with SK-MEL-2, 25.3 µM (inactive); in the test on HCC 2998, 25.3 µM (inactive); in the test with HCT-15 it was 28.5 µM; in the test with OVCAR-3 it was 17.5 µM (inactive); with T47D, 48.8 µM (inactive). Further, the GI50 is 27.9 µM (inactive) with 786-0; 28.1 µM (inactive) with TK-10; 31.4 µM (inactive) with SNB-19; 19.5 µM (inactive) in the test with HL-60; 20.7 µM (inactive) in the test on NCI-H460; 29.1 µM (inactive) with CCRF-CEM. Moreover, the GI50 is 24.9 µM (inactive) with OVCAR-8; 31.6 µM (inactive) in the test with SW-620; 33 µM (inactive) in the test with UACC-257; 29.6 µM (inactive) with SN12C; 24.6 µM (inactive) in the test on NCI-H522; 41 µM (inactive) with SK-OV-3. Also, the GI50 in the test with UACC-62 was 14 µM (inactive).

`CCN(CC)CCCNc1[nH]c2ccccc2c2nc3ccc(OC)cc3c1-2`: the GI50 with MDA-N is 1.56 µM (inactive); in the test with SK-MEL-2 it was 1.73 µM (inactive); in the test on HCC 2998 it was 1.12 µM (inactive); with HCT-15 it was 1.21 µM; in the test with OVCAR-3, 3.31 µM (inactive); in the test on T47D it was 10 µM (inactive). In addition, the GI50 in the test on 786-0 was 1.16 µM (inactive); in the test with TK-10 it was 2.31 µM (inactive); in the test on SNB-19, 1.59 µM (inactive); in the test with HL-60, 1.21 µM (inactive); in the test on NCI-H460, 0.367 µM (active); in the test with CCRF-CEM, 0.61 µM (active). For the same molecule, the GI50 in the test on OVCAR-8 was 0.824 µM (active); in the test with SW-620, 0.828 µM (active); in the test on UACC-257, 1.79 µM (inactive); in the test with SN12C, 2.1 µM (inactive); in the test on NCI-H522 it was 1.46 µM (inactive); in the test on SK-OV-3, 3.08 µM (inactive). In addition, the GI50 with UACC-62 was 4.68 µM (inactive).

Regarding `COc1cc(C=C2C(C)=NN(c3cccc(Cl)c3)C23C(Cl)C(=O)N3c2nc3ccccc3s2)ccc1O` (stereo unspecified), the GI50 in the test with MDA-N is 16.3 µM (inactive); with SK-MEL-2, 17.5 µM (inactive); in the test with HCC 2998, 2.56 µM (inactive); with HCT-15 it was 20.7 µM; in the test on OVCAR-3 it was 26.4 µM (inactive); in the test on T47D, 27 µM (inactive). In addition, the GI50 in the test on 786-0 was 19.8 µM (inactive); with TK-10, 30.7 µM (inactive); in the test with HL-60, 0.546 µM (active); in the test with NCI-H460, 25.4 µM (inactive); in the test on CCRF-CEM it was 2.07 µM (inactive); in the test with OVCAR-8, 16.8 µM (inactive). Also, the GI50 in the test with SW-620 is 10.7 µM (inactive); in the test on UACC-257, 23.1 µM (inactive); in the test with NCI-H522 it was 3.5 µM (inactive); with SK-OV-3 it was 26.3 µM (inactive).

For the molecule `COC(=O)c1c(O)ccc2c1C1(Cc3ccccc3C1=O)C(O)O2` (stereo unspecified), the GI50 is 13.7 µM (inactive) in the test with MDA-N; 28.3 µM (inactive) in the test with SK-MEL-2; 31.2 µM (inactive) in the test with HCC 2998; 13.3 µM with HCT-15; 18.6 µM (inactive) with OVCAR-3; 18.2 µM (inactive) in the test on T47D. The GI50 is 14.1 µM (inactive) in the test with 786-0; 24.3 µM (inactive) in the test on TK-10; 43.4 µM (inactive) with SNB-19; 4.02 µM (inactive) in the test on HL-60; 8.85 µM (inactive) in the test on NCI-H460; 2.46 µM (inactive) in the test on CCRF-CEM. Besides, the GI50 was 14.5 µM (inactive) with OVCAR-8; 25.1 µM (inactive) with SW-620; > 100 µM (inactive) with UACC-257; 16.4 µM (inactive) in the test on SN12C; 3.86 µM (inactive) in the test with NCI-H522; 20.2 µM (inactive) in the test with SK-OV-3.

In the case of `CCOc1cc(NC(C)=O)ccc1C(=O)NN1C(=O)C(Cl)C1c1ccc(O)c(OC)c1` (stereo unspecified), the GI50 in the test with MDA-N was 14.2 µM (inactive); in the test on SK-MEL-2, 14.8 µM (inactive); with HCC 2998, 17.2 µM (inactive); in the test on HCT-15, 14.2 µM; with OVCAR-3, 20.2 µM (inactive); in the test on T47D it was 12.2 µM (inactive). Besides, the GI50 in the test on 786-0 was 13.1 µM (inactive); with TK-10, 3.08 µM (inactive); with SNB-19 it was 15.8 µM (inactive); with HL-60 it was 15.7 µM (inactive); in the test with NCI-H460, 16.4 µM (inactive); with CCRF-CEM, 4.67 µM (inactive). Also, the GI50 in the test on OVCAR-8 was 24.4 µM (inactive); with SW-620 it was 21.4 µM (inactive); in the test with UACC-257, 11.8 µM (inactive); with SN12C, 13.3 µM (inactive); in the test on NCI-H522, 6.35 µM (inactive); in the test on SK-OV-3, 17.3 µM (inactive). Also, the GI50 in the test with UACC-62 was 12.3 µM (inactive).

As for `CNC(=O)[C@H](Cc1ccccc1)NC(=O)N(CCC#N)CCN(C(=O)N[C@@H](Cc1ccccc1)C(=O)OC)c1ccccc1`, the GI50 is > 100 µM (inactive) in the test with MDA-N; > 100 µM (inactive) in the test on SK-MEL-2; > 10 µM (inactive) in the test on HCC 2998; > 100 µM in the test with HCT-15; > 100 µM (inactive) with OVCAR-3; > 100 µM (inactive) in the test with T47D. For the same molecule, the GI50 with 786-0, with TK-10, in the test with SNB-19, in the test on HL-60, with NCI-H460 and in the test with CCRF-CEM was > 100 µM (inactive) throughout. The GI50 in the test on OVCAR-8, with SW-620, in the test with UACC-257, with NCI-H522, in the test on SK-OV-3 and with UACC-62 was > 100 µM (inactive) throughout.

Take `COCCCNC(=O)C1=C(C)NC(C)=C(C(=O)NCCCOC)C1`: the GI50 with MDA-N, in the test on SK-MEL-2, in the test with HCC 2998, with OVCAR-3, in the test with T47D and with 786-0 was > 100 µM (inactive) each time. For the same molecule, the GI50 in the test with TK-10, in the test with SNB-19, in the test with HL-60, in the test with NCI-H460, with CCRF-CEM and in the test on OVCAR-8 was > 100 µM (inactive) in each case. Besides, the GI50 was > 100 µM (inactive) with SW-620; > 100 µM (inactive) in the test with UACC-257; > 100 µM (inactive) in the test with SN12C; 9.23 µM (inactive) in the test on NCI-H522; > 100 µM (inactive) in the test on SK-OV-3; > 100 µM (inactive) in the test with UACC-62.

Regarding `COc1ccc(OC)c(NS(=O)(=O)c2ccc3nc(C)n(NS(=O)(=O)c4cc(OC)ccc4OC)c(=O)c3c2)c1`, the GI50 in the test on MDA-N was 41.7 µM (inactive); in the test with SK-MEL-2, > 100 µM (inactive); in the test with HCC 2998, 38.6 µM (inactive); in the test on HCT-15, > 100 µM; in the test on OVCAR-3 it was > 100 µM (inactive); with T47D, > 100 µM (inactive). Further, the GI50 is > 100 µM (inactive) in the test on 786-0; > 100 µM (inactive) with TK-10; > 100 µM (inactive) with SNB-19; 26.2 µM (inactive) with HL-60; 82.4 µM (inactive) in the test with NCI-H460; 75.7 µM (inactive) in the test on CCRF-CEM. Besides, the GI50 was > 100 µM (inactive) with OVCAR-8; 96.4 µM (inactive) in the test on SW-620; > 100 µM (inactive) with UACC-257; > 100 µM (inactive) in the test on SN12C; > 100 µM (inactive) in the test on NCI-H522; > 100 µM (inactive) with SK-OV-3. The GI50 with UACC-62 is > 100 µM (inactive).

Take `N#Cc1c(-c2ccccc2)c2c([nH]c1=O)-c1cc([N+](=O)[O-])ccc1CCC2`: the GI50 is 36.5 µM (inactive) in the test with MDA-N; 25.2 µM (inactive) in the test with SK-MEL-2; 20.7 µM (inactive) in the test with HCC 2998; 20.9 µM in the test with HCT-15; 21.2 µM (inactive) with OVCAR-3; 19.3 µM (inactive) in the test with T47D. Further, the GI50 in the test with 786-0 was 43.2 µM (inactive); in the test with TK-10 it was 44.4 µM (inactive); with SNB-19, 36.7 µM (inactive); in the test on HL-60 it was 35.2 µM (inactive); in the test with NCI-H460 it was 30.4 µM (inactive); in the test with CCRF-CEM it was 37.6 µM (inactive). Besides, the GI50 was 34.3 µM (inactive) with OVCAR-8; 36.7 µM (inactive) in the test with SW-620; 31.1 µM (inactive) with UACC-257; 44.1 µM (inactive) in the test on SN12C; 27.5 µM (inactive) in the test with NCI-H522; 36.3 µM (inactive) with SK-OV-3. In addition, the GI50 in the test with UACC-62 was 17.5 µM (inactive).

In the case of `COc1ccc2c(c1)N=C(N)n1c(nc3ccccc31)S2`, the GI50 in the test with MDA-N is 3.45 µM (inactive); with SK-MEL-2, 7.98 µM (inactive); in the test with HCC 2998, 48.9 µM (inactive); in the test with HCT-15, 25.1 µM; in the test with OVCAR-3, 22.2 µM (inactive); with T47D, 15.2 µM (inactive). Moreover, the GI50 with 786-0 was 1.95 µM (inactive); in the test with TK-10, > 100 µM (inactive); in the test with SNB-19, 82 µM (inactive); with HL-60, 3.79 µM (inactive); in the test with NCI-H460, 8.18 µM (inactive); with CCRF-CEM, 2.99 µM (inactive). Further, the GI50 in the test with SW-620 is 39.9 µM (inactive); in the test on UACC-257, 11.8 µM (inactive); in the test with SN12C it was 51.6 µM (inactive); in the test on NCI-H522, 12.2 µM (inactive); with SK-OV-3 it was 30.5 µM (inactive); in the test with UACC-62 it was 16.3 µM (inactive).

For the molecule `BC(=O)NC(CC(C)C)C(=O)NC1c2ccsc2C(=O)C1O.CN(C)C` (stereo unspecified), the GI50 with MDA-N was > 100 µM (inactive); in the test on SK-MEL-2, > 100 µM (inactive); with HCC 2998, > 100 µM (inactive); in the test with HCT-15, > 100 µM; in the test on T47D, > 100 µM (inactive); in the test with 786-0, > 100 µM (inactive). For the same molecule, the GI50 in the test on TK-10, in the test on SNB-19, in the test with HL-60, with NCI-H460, in the test with CCRF-CEM and with OVCAR-8 was > 100 µM (inactive) in each case. In addition, the GI50 with SW-620, in the test with UACC-257, with SN12C, in the test on NCI-H522, with SK-OV-3 and in the test with UACC-62 was > 100 µM (inactive) each time.

For orientation: GI50 means the concentration giving 50% growth inhibition.
